For 4 molecules, LD100, LD50 and IC50 results are on record in patent US20230270809A1, “VETERINARY COMPOSITIONS FOR THE TREATMENT AND/OR PREVENTION OF PROTOZOAN DISEASES AND METHODS OF PREPARATION THEREOF” (ADIFEED SP. Z O. O., priority 2020, published 2023).

One experiment concerns Euglena gracilis. Description: in vitro protozoicidal test on Euglena gracilis (watch glass, microscope). The experiment is classed as cell-based. Particulars: concentration giving death of 100% of individuals within 3 minutes, in aqueous polysorbate 80 (0.05%).
The test system of a further experiment is Paramecium caudatum. Description: in vitro protozoicidal test on Paramecium caudatum (watch glass, microscope). Conditions: concentration giving death of 100% of individuals within 3 minutes, in aqueous polysorbate 80 (0.05%). Type of experiment: cell-based.
In a further experiment the test system is Trichomonas hominis. Description: in vitro protozoicidal test on Trichomonas hominis (watch glass, microscope). The experiment is classed as cell-based. Particulars: in aqueous polysorbate 80 (0.05%); for LD100: concentration giving death of 100% of individuals within 3 minutes.
A further experiment relates to Gregarina blattarum. Description: in vitro protozoicidal test on gregarines isolated from cockroaches. Particulars: Ringer's solution; for LD100: lethal concentration for 100% of individuals within 3 minutes. Type of experiment: cell-based. The text has this:
For in vitro tests of antiprotozoal activity of the composition five reference organisms representing taxonomic groups to which pathogenic protozoa belong were selected, i.e: • Amoeba proteus—Chaos diffluens—a protozoan of the order Euamoebida, belonging to fifth supergroup of the Amoebozoa, living in waters. • Paramecium caudatum—a slipper animalcule representing the Ciliata orachs, living in waters. • Gregarina blattarum—gregarine isolated from cockroaches, representing the phylum Apicomplexa, living in the digestive tracts or body cavities of invertebrates. • Euglena gracilis—a protozoan living in water, representing the flagellates—Mastigophora, family Euglenaceae. • Trichomonas hominis—a protozoan living in the human colon, representing the Trichomonadidae.
The gregarines were isolated from the cockroaches and, after being placed on a watch slide, were treated with the products at different concentrations in Ringer's solution. Each sample contained ten individuals.
The compositions, negative controls, and positive controls were dissolved in an aqueous solution of polysorbate 80 (0.05%) before application to a watch slide.
Compositions I and II were then analysed for their antiprotozoal properties. […]
Individual acids, catalyst solution, essential oil and metal salt solutions were also analysed for protozoal properties. […] Observation under a fluorescence microscope with phase contrast was carried out.

A further experiment has as its system Amoeba proteus. Description: in vitro protozoicidal test on Amoeba proteus (watch glass, microscope). Type of experiment: cell-based. Conditions: in aqueous polysorbate 80 (0.05%); for LD100: concentration giving death of 100% of individuals within 3 minutes.
The subject of a further experiment is Trypanosoma cruzi. Conditions: read-out: inhibitory effect on 50% of the population (IC50), Becco et al. 2012; cited from earlier work.
The subject of experiment [1] is Trypanosoma cruzi and Leishmania chagasi. Particulars: Escobar et al. 2010; cited from earlier work.
Setting [2] is: concentration giving death of 50% of individuals within 3 minutes.

As to “copper carbonate [Copper carbonate solution]”, the LD100 is 0.25% in the experiment with Euglena gracilis, 0.5% in the experiment with Paramecium caudatum and 0.3% with Trichomonas hominis.

Take “zinc carbonate [Zinc carbonate solution]”: the LD100 with Euglena gracilis stood at 0.3%; with Gregarina blattarum, 0.4%; in the experiment with Amoeba proteus, 0.25%; in the experiment on Paramecium caudatum it was 0.5%; in the experiment with Trichomonas hominis, 0.4%.

Take `Cc1ncc([N+](=O)[O-])n1CCO` [M, metronidazole, reference compound]: the figures for the LD50 in the experiment on Gregarina blattarum (lethal concentration for 50% of individuals within 3 minutes), with Amoeba proteus (setting [2]) and in the experiment on Trichomonas hominis (setting [2]) were 0.13%, 0.3% and 0.05%, respectively. The results for the LD100 with Gregarina blattarum, in the experiment with Amoeba proteus and with Trichomonas hominis were 0.3%, 0.5% and 0.1%, respectively.

As to `CC1CS(=O)(=O)CCN1/N=C/c1ccc([N+](=O)[O-])o1` (stereo not shown) [Nifurtimox], the IC50 in the experiment with Trypanosoma cruzi was 6 µM; in experiment [1] it was 0.3 to 0.4 µg/mL.
